According to article PMC3758303 (PLoS ONE, 2013):

Columns and labels:
[1] = WST-1 cell proliferation assay, ORL11 cells; format: cell-based; conditions: human
Method: (§1) The WST-1 cell proliferation assay was performed as described previously. Briefly, The cells were plated onto 96-well plates (1×10^3 cells per well) in triplicate and then treated with each reagent at several concentrations for 72 hrs. After treatment, the cells were subjected to the WST-1 cell proliferation assay (Takara Bio, Otsu, Japan) according to the manufacturer’s protocol. This assay is based on the enzymatic cleavage of the tetrazolium salt WST-1 to formazan by cellular mitochondrial dehydrogenases present in viable cells. Therefore, there are […] the value of the WST-1 assay becomes zero. The experiments were performed at least in triplicate. From the assay results, the 50% cytotoxic concentration (CC50) of each reagent was determined.

[2] = WST-1 cell proliferation assay, sOR cells; format: cell-based; conditions: human
Method: as §1

[3] = system: HCV-RNA replication in ORL8 cells; test: Combination with IFN-α and/or RBV, ORL8 RL assay; format: cell-based, hepatitis C virus; conditions: 72 hrs; for anti-HCV effect in combination with IFN-α: IFN-α more than 4 IU/ml
From the text: (§2) We examined the anti-HCV activity of N-89 or N-251 in combination with IFN-α using OR6 and ORL8 assay systems. […] However, such an effect was not clear in the OR6 assay (Fig. S4A). […] Therefore, we next examined the combination effect of RBV in the same way as IFN-α using an ORL8 assay. […] Therefore, we further examined the effect of N89 or N-251 in combination with both IFN-α and RBV using an ORL8 assay.
Figure 6 Synergistic anti-HCV effects of N-89 or N-251 in combination with IFN-α and/or RBV on HCV-RNA replication in ORL8 cells. […] ORL8 cells were treated with N-89 (upper panel) or N-251 (lower panel) in combination with IFN-α (A), RBV (B), or IFN-α and RBV (C) for 72 hrs and subjected to RL assay.

[4] = WST-1 cell proliferation assay, sORL11 cells; format: cell-based; conditions: human
Method: as §1

[5] = WST-1 cell proliferation assay, 1B-4R cells; format: cell-based; conditions: human
Method: as §1

[6] = system: HCV subgenomic replicon RNA (O strain) replication in HuH-7-derived polyclonal sOR cells; test: sOR RL assay; format: cell-based, hepatitis C virus; conditions: HuH-7, subgenomic replicon
Method: (§3) RSc and D7 cells were derived from the cell lines HuH-7 and Li23, respectively, were cultured as described previously, [29]. HuH-7-derived OR6 [13], AH1R [30], and 1B-4R [Ikeda et al., submitted] cells harboring genome-length HCV-RNA and HuH-7-derived polyclonal sOR [31], and RSc-JRN/35B [Ikeda et al., submitted] cells harboring an HCV subgenomic replicon were cultured with medium in the presence of G418 (0.3 mg/ml; Geneticin, Invitrogen, Carlsbad, CA) as described previously. Li23-derived ORL8 [20], ORL11 [20], 1B-4RL [Ikeda et al., submitted], and KAH5RL [Ikeda et al., submitted] cells harboring genome-length HCV-RNA were maintained with medium in the presence of G418 (0.3 mg/ml) as described previously. Li23-derived polyclonal sORL8 and sORL11 cells harboring an HCV replicon, which were established by the transfection of ORN/3-5B/QR,KE,SR RNA into the cured OL8 and OL11 cells, respectively, were also cultured with medium in the presence of G418 (0.3 mg/ml) as described previously. Cured cells, from which the HCV-RNA had been eliminated by IFN treatment, were also maintained with medium in the absence of G418 as described previously. […] Therefore, when HCV-RNA is excluded from the cells or when its level is decreased, the cells are killed in the presence of G418.
RL assay was performed as described previously, [24]. Briefly, the cells were plated onto 24-well plates (2×10^4 cells per well) in triplicate and then treated with each reagent at several concentrations for 72 hrs. After treatment, the cells were subjected to luciferase assay using the RL assay system (Promega, Madison, WI). The experiments were performed at least in triplicate. From the assay results, the 50% effective concentration (EC50) of each reagent was determined.
(§4) The SI value of each reagent was determined by dividing the CC50 value by the EC50 value.

[7] = WST-1 cell proliferation assay, OR6 cells; format: cell-based; conditions: human
Method: as §1

[8] = system: genome-length HCV-RNA (1B-4 strain of genotype 1b) replication in Li23-derived 1B-4RL cells; test: 1B-4RL RL assay; format: cell-based; conditions: Hepatitis C virus, 1B-4RL assay, Li23, HCV strain 1B-4, 72 hrs
Method: as §3, with “G418. […]” for “G418.”
as §4

[9] = system: HCV-RNA replication in OR6 cells; test: Combination with IFN-α and/or RBV, OR6 RL assay; format: cell-based, hepatitis C virus; conditions: 72 hrs
From the text: as §2
Supplementary file pone.0072519.s004.tif: Figure S4 Anti-HCV effects of N-89 or N-251 in combination with IFN-α and/or RBV on HCV-RNA replication in OR6 cells. […] (A) Effect of N-89 or N-251 in combination with IFN-α on OR6 assay. OR6 cells were treated with N-89 (upper panel) or N-251 (lower panel) in combination with IFN-α for 72 hrs and subjected to RL assay. (B) Effect of N-89 or N-251 in combination with RBV on OR6 assay. OR6 cells were treated with N-89 (upper panel) or N-251 (lower panel) in combination with RBV for 72 hrs and subjected to RL assay. (C) Effect of N-89 or N-251 in combination with IFN-α and RBV on OR6 assay. OR6 cells were treated with N-89 (upper panel) or N-251 (lower panel) in combination with IFN-α and RBV for 72 hrs and subjected to RL assay. (TIF) Click here for additional data file.

| Compound | CC50 at 72 h [1] | CC50 at 72 h [2] | anti-HCV effect in combination with RBV [3] | anti-HCV effect in combination with both IFN-α and RBV [3] | anti-HCV effect in combination with IFN-α [3] | CC50 at 72 h [4] | CC50 at 72 h [5] | EC50 ([6]; Hepatitis C virus, Huh-7, 72 h) | EC50 ([6]; 72 hrs) | CC50 at 72 h [7] | EC50 [8] | anti-HCV effect in combination with IFN-α [9] | anti-HCV effect in combination with RBV [9] |
| --- | --- | --- | --- | --- | --- | --- | --- | --- | --- | --- | --- | --- | --- |
| OCCCCCCC1COOC2(CCCCCCCCCCC2)OOC1 [N-251, 6-(1,2,6,7-tetraoxaspiro[7.11]nonadec-4-yl)hexan-1-ol] | 1100 nM | 2200 nM | synergistic effect | synergistically enhanced | synergistic effect | 3100 nM | 3800 nM | < 1000 nM | 690 nM | 3000 nM | 230 nM | not clear | additive anti-HCV effect |
| C1CCCCCC2(CCCCC1)OOCCCOO2 [N-89, 1,2,6,7-Tetraoxaspiro[7.11]nonadecane] | 560 nM | 1700 nM | synergistic effect | synergistically enhanced | synergistic effect | 1700 nM | 9300 nM | < 1000 nM | 580 nM | 9000 nM | 120 nM | not clear | additive anti-HCV effect |
